Experimental data reported in ChEMBL document CHEMBL5625202, “Synthesis, characterization and anti-breast cancer activities of stachydrine derivatives” (Eur J Med Chem, 2023).
Calls of active or inactive are those of the source. The rule behind the calls is not given here.

Key:
4T1 [1] = assay: Induction of apoptosis in mouse 4T1 cells assessed as increase in pro-caspase-3 expression at 5 mM incubated for 24 hrs by Western blot analysis; assay type: functional, cell-based
[2] = Stability of the compound in Sprague-Dawley rat plasma at 10 mg/kg, po measured after 6 hrs by LC-MS/MS analysis; assay type: ADME, organism-based; conditions: in vivo
[3] = Toxicity in BALB/c mouse implanted with mouse 4T1 cells assessed as body weight loss at 0.2 mmol/Kg, po administered once daily for 14 days; assay type: organism-based; conditions: in vivo, 336 h, time 14 day
4T1 [4] = assay: Induction of apoptosis in mouse 4T1 cells assessed as increase in cleaved caspase-3 expression at 5 mM incubated for 24 hrs by Western blot analysis; assay type: functional, cell-based
[5] = Toxicity in BALB/c mouse implanted with mouse 4T1 cells assessed as change in kidney histopathology at 0.2 mmol/Kg, po administered once every day for 14 days; assay type: organism-based; conditions: in vivo, 336 h, time 14 day
[6] = Half life in Sprague-Dawley rat plasma at 10 mg/kg, iv measured upto 6 hrs by LC-MS/MS analysis; assay type: ADME, organism-based
4T1 [7] = assay: Induction of apoptosis in mouse 4T1 cells assessed as increase in Bax expression at 5 mM incubated for 24 hrs by Western blot analysis; assay type: functional, cell-based
[8] = Toxicity in BALB/c mouse implanted with mouse 4T1 cells assessed as increase in monocytes at 0.2 mmol/Kg, po administered once every day for 14 days by routine blood analysis; assay type: organism-based; conditions: in vivo, 336 h, time 14 day
[9] = Cmax in Sprague-Dawley rat plasma at 10 mg/kg, iv measured upto 6 hrs by LC-MS/MS analysis; assay type: ADME, organism-based
4T1 [10] = assay: Anticancer activity against mouse 4T1 cells assessed as inhibition of cell growth incubated for 24 hrs by CCK-8 assay; assay type: functional, cell-based; conditions: 4T1, 24 h
[11] = Toxicity in BALB/c mouse implanted with mouse 4T1 cells assessed as effect on BUN level at 0.2 mmol/Kg, po administered once every day for 14 days by routine blood analysis; assay type: organism-based; conditions: in vivo, 336 h, time 14 day
4T1 [12] = assay: Induction of mitochondrial membrane potential loss in mouse 4T1 cells assessed as red fluorescence at 5000 uM incubated for 24 hrs by JC-1 staining based flow cytometric analysis (Rvb= 87.9%); assay type: cell-based
[13] = Toxicity in BALB/c mouse implanted with mouse 4T1 cells assessed as increase in splenic red pulp at 0.2 mmol/Kg, po administered once every day for 14 days; assay type: organism-based; conditions: in vivo, 336 h, time 14 day
4T1 [14] = assay: Antitumor activity against mouse 4T1 cells implanted in BALB/c mouse assessed as tumor cell necrosis at 0.2 mmol/Kg, po administered once every day for 14 days by histological staining based analysis; assay type: functional, organism-based; conditions: time 14.0 day
[15] = Toxicity in BALB/c mouse implanted with mouse 4T1 cells assessed as reduction in spleen index at 0.2 mmol/Kg, po administered once every day for 14 days relative to control; assay type: organism-based; conditions: in vivo, 336 h, time 14 day
[16] = Toxicity in BALB/c mouse implanted with mouse 4T1 cells assessed as increase in lymphocytes at 0.2 mmol/Kg, po administered once every day for 14 days by routine blood analysis; assay type: organism-based; conditions: in vivo, 336 h, time 14 day
4T1 [17] = assay: Antitumor activity against mouse 4T1 cells implanted in BALB/c mouse assessed as tumor cell shrinkage at 0.2 mmol/Kg, po administered once every day for 14 days by histological staining based analysis; assay type: functional, organism-based; conditions: time 14.0 day
4T1 [18] = assay: Induction of apoptosis in mouse 4T1 cells assessed as decrease in Bcl-2 expression at 5 mM incubated for 24 hrs by Western blot analysis; assay type: functional, cell-based
[19] = Toxicity in BALB/c mouse implanted with mouse 4T1 cells assessed as splenic edema at 0.2 mmol/Kg, po administered once every day for 14 days; assay type: organism-based; conditions: in vivo, 336 h, time 14 day
[20] = Oral bioavailability in Sprague-Dawley rat at 10 mg/kg measured upto 6 hrs by LC-MS/MS analysis; assay type: ADME, organism-based; conditions: in vivo
4T1 [21] = assay: Induction of apoptosis in mouse 4T1 cells assessed as apoptotic rate at 10000 micromol/L incubated for 24 hrs by Annexin-V/PI staining based flow cytometry relative to control; assay type: functional; conditions: dose 10000 µmol/L, at 10000 µM
4T1 [22] = assay: Induction of apoptosis in mouse 4T1 cells assessed as apoptotic rate at 2500 micromol/L incubated for 24 hrs by Annexin-V/PI staining based flow cytometry relative to control; assay type: functional; conditions: dose 2500 µmol/L, at 2500 µM
4T1 [23] = assay: Induction of apoptosis in mouse 4T1 cells assessed as apoptotic rate at 5000 micromol/L incubated for 24 hrs by Annexin-V/PI staining based flow cytometry relative to control; assay type: functional; conditions: dose 5000 µmol/L, at 5000 µM
[24] = Toxicity in BALB/c mouse implanted with mouse 4T1 cells assessed as change in lung histopathology at 0.2 mmol/Kg, po administered once every day for 14 days; assay type: organism-based; conditions: in vivo, 336 h, time 14 day
[25] = Toxicity in BALB/c mouse implanted with mouse 4T1 cells assessed as effect on CREA level at 0.2 mmol/Kg, po administered once every day for 14 days by routine blood analysis; assay type: organism-based; conditions: in vivo, 336 h, time 14 day
[26] = Toxicity in BALB/c mouse implanted with mouse 4T1 cells assessed as change in heart histopathology at 0.2 mmol/Kg, po administered once every day for 14 days; assay type: organism-based; conditions: in vivo, 336 h, time 14 day
4T1 [27] = assay: Inhibition of cell migration in mouse 4T1 cells assessed as reduction in wound healing incubated for 24 hrs by microscopic analysis; assay type: functional, cell-based
[28] = Toxicity in BALB/c mouse implanted with mouse 4T1 cells assessed as increase in white blood cells at 0.2 mmol/Kg, po administered once every day for 14 days by routine blood analysis; assay type: organism-based; conditions: in vivo, 336 h, time 14 day
4T1 [29] = assay: Antitumor activity against mouse 4T1 cells implanted in BALB/c mouse assessed as change in tumor weight at 0.2 mmol/Kg, po administered once every day for 14 days; assay type: functional, organism-based; conditions: time 14.0 day
4T1 [30] = assay: Induction of mitochondrial membrane potential loss in mouse 4T1 cells assessed as green fluorescence at 5000 uM incubated for 24 hrs by JC-1 staining based flow cytometric analysis (reference value: 11.7%); assay type: cell-based
[31] = AUC (0 to t) in Sprague-Dawley rat plasma at 10 mg/kg, iv measured upto 6 hrs by LC-MS/MS analysis; assay type: ADME, organism-based
[32] = Toxicity in BALB/c mouse implanted with mouse 4T1 cells assessed as increase in ALT level at 0.2 mmol/Kg, po administered once every day for 14 days by routine blood analysis; assay type: organism-based; conditions: in vivo, 336 h, time 14 day
4T1 [33] = assay: Antitumor activity against mouse 4T1 cells implanted in BALB/c mouse assessed as tumor growth inhibition at 0.2 mmol/Kg, po administered once every day for 14 days relative to control; assay type: functional; conditions: 4T1, 336 h, time 14 day, read-out: TGI
[34] = Toxicity in BALB/c mouse implanted with mouse 4T1 cells assessed as increase in AST level at 0.2 mmol/Kg, po administered once every day for 14 days by routine blood analysis; assay type: organism-based; conditions: in vivo, 336 h, time 14 day
[35] = Toxicity in BALB/c mouse implanted with mouse 4T1 cells assessed as blurred spleen morphology at 0.2 mmol/Kg, po administered once every day for 14 days; assay type: organism-based; conditions: in vivo, 336 h, time 14 day
[36] = Toxicity in BALB/c mouse implanted with mouse 4T1 cells assessed as increase in neutrophil granulocytes at 0.2 mmol/Kg, po administered once every day for 14 days by routine blood analysis; assay type: organism-based; conditions: in vivo, 336 h, time 14 day
[37] = Tmax in Sprague-Dawley rat plasma at 10 mg/kg, iv measured upto 6 hrs by LC-MS/MS analysis; assay type: ADME, organism-based
[38] = Toxicity in BALB/c mouse implanted with mouse 4T1 cells assessed as change in liver histopathology at 0.2 mmol/Kg, po administered once every day for 14 days; assay type: organism-based; conditions: in vivo, 336 h, time 14 day

**Q.** For C[N+]1(C)CCCC1C(=O)[O-] (stereo not drawn), which Activity (4T1 [1]) is on record?
**A.** inactive

**Q.** What about the Stability [2] of the same molecule?
**A.** Unstable

**Q.** And the Activity [3]?
**A.** Toxic

**Q.** And the Activity (4T1 [4])?
**A.** inactive

**Q.** And the Activity [5]?
**A.** Non-Toxic

**Q.** What about the half-life [6] of the same molecule?
**A.** 69.6 min

**Q.** And the Activity (4T1 [7])?
**A.** Active

**Q.** What about the Activity [8] of the same molecule?
**A.** Toxic

**Q.** What about the Cmax [9] of the same molecule?
**A.** 94.6 µg/mL

**Q.** What about the IC50 (4T1 [10]) of the same molecule?
**A.** 39 mM

**Q.** And the Activity [11]?
**A.** Non-Toxic

**Q.** And the Activity (4T1 [12])?
**A.** 70.4%

**Q.** And the Activity [13]?
**A.** Toxic

**Q.** What about the Activity (4T1 [14]) of the same molecule?
**A.** Active

**Q.** What about the Activity [15] of the same molecule?
**A.** Toxic

**Q.** And the Activity [16]?
**A.** Toxic

**Q.** What about the Activity (4T1 [17]) of the same molecule?
**A.** Active

**Q.** What about the Activity (4T1 [18]) of the same molecule?
**A.** Active

**Q.** What about the Activity [19] of the same molecule?
**A.** Toxic

**Q.** And the bioavailability [20]?
**A.** 100%

**Q.** And the Activity (4T1 [21])?
**A.** 32.47%

**Q.** And the Activity (4T1 [22])?
**A.** 20.38%

**Q.** What about the Activity (4T1 [23]) of the same molecule?
**A.** 28.09%

**Q.** What about the Activity [24] of the same molecule?
**A.** Non-Toxic

**Q.** And the Activity [25]?
**A.** Non-Toxic

**Q.** What about the Activity [26] of the same molecule?
**A.** Non-Toxic

**Q.** And the inhibition (4T1 [27])?
**A.** Dose-Dependent Effect

**Q.** And the Activity [28]?
**A.** Toxic

**Q.** What about the Activity (4T1 [29]) of the same molecule?
**A.** Active

**Q.** What about the Activity (4T1 [30]) of the same molecule?
**A.** 29.6%

**Q.** What about the AUC(0-t) at 6 h [31] of the same molecule?
**A.** 18500 ng·h/mL

**Q.** And the Activity [32]?
**A.** Toxic

**Q.** What about the inhibition in vivo at 200 µmol/kg (4T1 [33]) of the same molecule?
**A.** 3.89%

**Q.** And the Activity [34]?
**A.** Toxic

**Q.** And the Activity [35]?
**A.** Toxic

**Q.** What about the Activity [36] of the same molecule?
**A.** Toxic

**Q.** And the Tmax [37]?
**A.** 1.02 min

**Q.** What about the Activity [38] of the same molecule?
**A.** Non-Toxic
